In US20110319411A1, “ISOINDOLINONE AND RELATED ANALOGS AS SIRTUIN MODULATORS” (Sirtis Pharmaceuticals, Inc., priority 2008, published 2011):

Target: T1, SIRT1 (Homo sapiens, UniProt Q96EB6)
T1 construct: made in house; host or cells: E. coli BL21(DE3)
T1 sequence (Q96EB6 1-747): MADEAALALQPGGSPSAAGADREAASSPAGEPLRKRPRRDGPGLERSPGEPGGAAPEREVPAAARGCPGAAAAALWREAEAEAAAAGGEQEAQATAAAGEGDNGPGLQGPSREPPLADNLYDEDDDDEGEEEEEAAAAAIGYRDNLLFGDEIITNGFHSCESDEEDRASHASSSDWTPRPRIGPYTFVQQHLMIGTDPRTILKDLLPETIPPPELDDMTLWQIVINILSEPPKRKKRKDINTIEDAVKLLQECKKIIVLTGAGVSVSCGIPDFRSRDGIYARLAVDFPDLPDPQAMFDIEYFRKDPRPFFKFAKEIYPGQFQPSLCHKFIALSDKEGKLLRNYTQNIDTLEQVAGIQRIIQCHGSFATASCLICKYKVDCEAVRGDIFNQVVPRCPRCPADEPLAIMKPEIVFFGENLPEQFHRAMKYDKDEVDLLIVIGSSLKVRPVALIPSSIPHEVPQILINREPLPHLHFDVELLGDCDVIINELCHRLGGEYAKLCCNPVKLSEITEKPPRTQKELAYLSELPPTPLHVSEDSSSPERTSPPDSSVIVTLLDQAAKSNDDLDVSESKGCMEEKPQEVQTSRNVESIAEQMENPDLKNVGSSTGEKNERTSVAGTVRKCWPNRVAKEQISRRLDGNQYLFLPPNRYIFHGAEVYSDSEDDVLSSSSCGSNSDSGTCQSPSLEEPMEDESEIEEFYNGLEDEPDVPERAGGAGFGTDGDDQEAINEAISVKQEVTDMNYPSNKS
Test: mass spectrometry based assay to identify modulators of SIRT1 activity
Assay type: biochemical
Details: 10 nM SIRT1, 0.5 μM peptide substrate, 120 μM βNAD+, 25 minutes at 25° C.; for Emax: 25 min, read-out: % FOLD ACT. (percent maximum fold activation)
Source text: A mass spectrometry based assay was used to identify modulators of SIRT1 activity. The mass spectrometry based assay utilizes a peptide having 20 amino acid residues as follows: Ac-EE-K(biotin)-GQSTSSHSK(Ac)NleSTEG-K(5TMR)-EE-NH2 (SEQ ID NO: 1) wherein K(Ac) is an acetylated lysine residue and Nle is a norleucine. The peptide is labeled with the fluorophore 5TMR (excitation 540 nm/emission 580 nm) at the C-terminus. The sequence of the peptide substrate is based on p53 with several modifications. In addition, the methionine residue naturally present in the sequence was replaced with the norleucine because the methionine may be susceptible to oxidation during synthesis and purification.
The mass spectrometry assay is conducted as follows: 0.5 μM peptide substrate and 120 μM βNAD^+ is incubated with 10 nM SIRT1 for 25 minutes at 25° C. in a reaction buffer (50 mM Tris-acetate pH 8, 137 mM NaCl, 2.7 mM KCl, 1 mM MgCl2, 5 mM DTT, 0.05% BSA). Test compounds may be added to the reaction as described above. The SirT1 gene is cloned into a T7-promoter containing vector and transformed into BL21(DE3). After the 25 minute incubation with SIRT1, 10 μL of 10% formic acid is added to stop the reaction. Reactions are sealed and frozen for later mass spec analysis. Determination of the mass of the substrate peptide allows for precise determination of the degree of acetylation (i.e. starting material) as compared to deacetylated peptide (product).
A control for inhibition of sirtuin activity is conducted by adding 1 μL of 500 mM nicotinamide as a negative control at the start of the reaction (e.g., permits determination of maximum sirtuin inhibition). A control for activation of sirtuin activity is conducted using 10 nM of sirtuin protein, with 1 μL of DMSO in place of compound, to determine the amount of deacetylation of the substrate at a given timepoint within the linear range of the assay. This timepoint is the same as that used for test compounds and, within the linear range, the endpoint represents a change in velocity.
For the above assay, SIRT1 protein was expressed and purified as follows. The SirT1 gene was cloned into a T7-promoter containing vector and transformed into BL21(DE3). The protein was expressed by induction with 1 mM IPTG as an N-terminal His-tag fusion protein at 18° C. overnight and harvested at 30,000×g. Cells were lysed with lysozyme in lysis buffer (50 mM Tris-HCl, 2 mM Tris[2-carboxyethyl]phosphine (TCEP), 10 μM ZnCl2, 200 mM NaCl) and further treated with sonication for 10 min for complete lysis. The protein was purified over a Ni-NTA column (Amersham) and fractions containing pure protein were pooled, concentrated and run over a sizing column (Sephadex S200 26/60 global). The peak containing soluble protein was collected and run on an Ion-exchange column (MonoQ). Gradient elution (200 mM-500 mM NaCl) yielded pure protein. This protein was concentrated and dialyzed against dialysis buffer (20 mM Tris-HCl, 2 mM TCEP) overnight. The protein was aliquoted and frozen at −80° C. until further use.
Sirtuin modulating compounds that activated SIRT1 were identified using the assay described above and are shown below in Table 1. The EC1.5 values represent the concentration of test compounds that result in 150% activation of SIRT1. The EC1.5 values for the activating compounds are represented by A (EC1.5<10 μM), B (EC1-5 10-25 μM), C (EC1.5>25 μM). The percent maximum fold activation is represented by A (Fold activation >200%) or B (Fold Activation <200%).

Compound | EC1.5 (concentration of test compound that results in 150% activation of SIRT1) | Emax [%]
CC(C)(C(=O)Nc1cccc2c1C(=O)N(c1cccc(C(F)(F)F)c1)C2)c1ccccc1 [Compound 106] | C (EC1.5>25 μM) | < 200
O=C(Cc1cccnc1)Nc1cccc2c1C(=O)N(c1cccc(OC(F)(F)F)c1)C2 [Compound 107] | C (EC1.5>25 μM) | < 200
O=C(Nc1cccc2c1C(=O)N(c1cccc(C(F)(F)F)c1)C2)C1CCOCC1 [Compound 111] | A (EC1.5<10 μM) | < 200
O=C(Cc1ccc(F)cc1)Nc1cccc2c1C(=O)N(c1cccc(C(F)(F)F)c1)C2 [Compound 113] | C (EC1.5>25 μM) | < 200
Cc1ccccc1N1Cc2cccc(NC(=O)Cc3cccnc3)c2C1=O [Compound 114] | C (EC1.5>25 μM) | < 200
COc1cccc(N2Cc3cccc(NC(=O)Cc4cccnc4)c3C2=O)c1 [Compound 116] | C (EC1.5>25 μM) | < 200
Cc1ccc(N2Cc3cccc(NC(=O)Cc4cccnc4)c3C2=O)cc1 [Compound 117] | C (EC1.5>25 μM) | < 200
COc1ccc(N2Cc3cccc(NC(=O)Cc4cccnc4)c3C2=O)cc1 [Compound 118] | C (EC1.5>25 μM) | < 200
O=C(Nc1cccc2c1C(=O)N(c1cccc(C(F)(F)F)c1)C2)c1ccccn1 [Compound 120] | C (EC1.5>25 μM) | < 200
O=C(Nc1cccc2c1C(=O)N(c1cccc(C(F)(F)F)c1)C2)c1cccnc1 [Compound 121] | C (EC1.5>25 μM) | < 200
O=C(Nc1cccc2c1C(=O)N(c1cccc(C(F)(F)F)c1)C2)c1ncccn1 [Compound 122] | A (EC1.5<10 μM) | < 200
O=C(Nc1cccc2c1C(=O)N(c1cccc(C(F)(F)F)c1)C2)c1cscn1 [Compound 124] | C (EC1.5>25 μM) | < 200
O=C(Nc1cccc2c1C(=O)N(c1cccc(C(F)(F)F)c1)C2)c1ccc(CN2CCCC2)cc1 [Compound 125] | A (EC1.5<10 μM) | < 200
O=C(Nc1cccc2c1C(=O)N(c1cccc(C(F)(F)F)c1)C2)c1cncnc1 [Compound 126] | C (EC1.5>25 μM) | < 200
O=C(Nc1cccc2c1C(=O)N(c1cccc(C(F)(F)F)c1)C2)c1cncs1 [Compound 128] | C (EC1.5>25 μM) | < 200
O=C(Nc1cccc2c1C(=O)N(c1cccc(C(F)(F)F)c1)C2)c1cccc(OCC(O)CO)n1 (centres unmarked) [Compound 129, 6-(2,3-dihydroxypropoxy)-N-(3-oxo-2-(3-(trifluoromethyl)phenyl)isoindolin-4-yl)picolinamide] | C (EC1.5>25 μM) | < 200
O=C(Nc1cccc2c1C(=O)N(c1cccc(C(F)(F)F)c1)C2)c1cccc(CN2CCOCC2)n1 [Compound 130, 6-(morpholinomethyl)-N-(3-oxo-2-(3-(trifluoromethyl)phenyl)isoindolin-4-yl)picolinamide] | A (EC1.5<10 μM) | < 200

The next lines start with the values.

EC1.5 (concentration of test compound that results in 150% activation of SIRT1) | Emax [%] | Compound
A (EC1.5<10 μM) | < 200 | O=C(Nc1cccc2c1C(=O)N(c1cccc(C(F)(F)F)c1)C2)c1cnccn1 [Compound 100, N-(3-oxo-2-(3-(trifluoromethyl)phenyl)isoindolin-4-yl)pyrazine-2-carboxamide]
C (EC1.5>25 μM) | < 200 | O=C(Cc1cccnc1)Nc1cccc2c1C(=O)N(c1cccc(C(F)(F)F)c1)C2 [Compound 101]
C (EC1.5>25 μM) | < 200 | O=C(Cc1cccnc1)Nc1cccc2c1C(=O)N(c1cccc(OC3CCNCC3)c1)C2 [Compound 102, N-(3-oxo-2-(3-(piperidin-4-yloxy)phenyl)isoindolin-4-yl)-2-(pyridin-3-yl)acetamide]
B (EC1-5 10-25 μM) | < 200 | O=C(Cc1cccnc1)Nc1cccc2c1C(=O)N(c1cccc(O[C@@H]3CCNC3)c1)C2 [Compound 103]
C (EC1.5>25 μM) | < 200 | O=C(Cc1cccnc1)Nc1cccc2c1C(=O)N(c1cccc(-c3ccncc3)c1)C2 [Compound 104]
C (EC1.5>25 μM) | < 200 | CC1(C(=O)Nc2cccc3c2C(=O)N(c2cccc(C(F)(F)F)c2)C3)CCCCC1 [Compound 105]
C (EC1.5>25 μM) | < 200 | O=C(Nc1cccc2c1C(=O)N(c1cccc(OC(F)(F)F)c1)C2)C1CCCC1 [Compound 108]
C (EC1.5>25 μM) | < 200 | O=C(Cc1ccccc1F)Nc1cccc2c1C(=O)N(c1cccc(C(F)(F)F)c1)C2 [Compound 109]
C (EC1.5>25 μM) | < 200 | O=C(Cc1cccc(F)c1)Nc1cccc2c1C(=O)N(c1cccc(C(F)(F)F)c1)C2 [Compound 110]
C (EC1.5>25 μM) | < 200 | O=C(CC1CCCC1)Nc1cccc2c1C(=O)N(c1cccc(C(F)(F)F)c1)C2 [Compound 112]
C (EC1.5>25 μM) | < 200 | Cc1cccc(N2Cc3cccc(NC(=O)Cc4cccnc4)c3C2=O)c1 [Compound 115]
C (EC1.5>25 μM) | < 200 | COc1ccccc1N1Cc2cccc(NC(=O)Cc3cccnc3)c2C1=O [Compound 119]
B (EC1-5 10-25 μM) | < 200 | O=C(Nc1cccc2c1C(=O)N(c1cccc(C(F)(F)F)c1)C2)c1ccncc1 [Compound 123]
C (EC1.5>25 μM) | < 200 | O=C(Nc1cccc2c1C(=O)N(c1cccc(C(F)(F)F)c1)C2)c1ccncn1 [Compound 127]
